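Growth conditions: 96-well plates. Treatment: test compound, 48 hours, 5 concentrations. Analysis: linear interpolation between bracketing concentrations; unreached endpoints set to highest concentration. GI50: concentration for 50% inhibition of growth.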 Activity calls are given as the source filed them. Cut-off read from the data, not from the text of the source: active = GI50 up to about 1.1 µM and inactive = higher.
Columns and labels:
Assay in all cases: growth of human tumour cells (NCI), 48 h
[1] = test system: OVCAR-8
[2] = test system: DU-145
[3] = test system: HOP-92
[4] = test system: MDA-N
[5] = test system: OVCAR-3
[6] = test system: LOX IMVI
[7] = test system: SK-MEL-28
[8] = test system: SK-MEL-5
[9] = test system: TK-10
[10] = test system: PC-3
[11] = test system: NCI-H460
[12] = test system: SNB-75
[13] = test system: ACHN
[14] = test system: UO-31
[15] = test system: SF-268
[16] = test system: A498
[17] = test system: LXFL 529
[18] = test system: Hs-578T
[19] = test system: UACC-62
[20] = test system: SN12C

SMILES | GI50 [1] | GI50 [2] | GI50 [3] | GI50 [4] | GI50 [5] | GI50 [6] | GI50 [7] | GI50 [8] | GI50 [9] | GI50 [10] | GI50 [11] | GI50 [12] | GI50 [13] | GI50 [14] | GI50 [15] | GI50 [16] | GI50 [17] | GI50 [18] | GI50 [19] | GI50 [20]
Nc1nc(N)c(CCCCc2ccccc2)c(N)n1 | > 100 µM (inactive) | > 100 µM (inactive) | > 100 µM (inactive) | > 100 µM (inactive) | > 100 µM (inactive) | > 100 µM (inactive) | > 100 µM (inactive) | > 100 µM (inactive) | > 100 µM (inactive) | > 100 µM (inactive) | > 100 µM (inactive) | 60.7 µM (inactive) | > 100 µM (inactive) | > 100 µM (inactive) | > 100 µM (inactive) | > 100 µM (inactive) | > 100 µM (inactive) | > 100 µM (inactive) | > 100 µM (inactive) | > 100 µM (inactive)
N[C@H]1C2C3CC4C5CC(C42)C1(c1ccccc1)C53 (stereo partly drawn) | > 100 µM (inactive) |  | 65.8 µM (inactive) |  | > 100 µM (inactive) | > 100 µM (inactive) | > 100 µM (inactive) | > 100 µM (inactive) | > 100 µM (inactive) |  | > 100 µM (inactive) | > 100 µM (inactive) | > 100 µM (inactive) | > 100 µM (inactive) | > 100 µM (inactive) | > 100 µM (inactive) | > 100 µM (inactive) |  | > 100 µM (inactive) | > 100 µM (inactive)
C=Nc1ccc([N+](=O)[O-])cc1 | > 100 µM (inactive) |  | > 100 µM (inactive) |  | > 100 µM (inactive) | 43.5 µM (inactive) | > 100 µM (inactive) | > 100 µM (inactive) | > 100 µM (inactive) |  | > 59.4 µM (inactive) | > 100 µM (inactive) | > 100 µM (inactive) | > 84.9 µM (inactive) | > 100 µM (inactive) | > 100 µM (inactive) | > 72.8 µM (inactive) |  | > 84.5 µM (inactive) | > 65.3 µM (inactive)
CCC1=CCC(P(=O)(c2ccccc2)c2ccccc2)CC1C (stereo not drawn) | 39.1 µM (inactive) |  | 25.5 µM (inactive) |  | 35.4 µM (inactive) | 44.3 µM (inactive) | 37.8 µM (inactive) | 28 µM (inactive) | 32.6 µM (inactive) |  | 39.1 µM (inactive) | 18.5 µM (inactive) |  | 21.7 µM (inactive) | 35.2 µM (inactive) | 38.5 µM (inactive) | 41.8 µM (inactive) |  | 33.3 µM (inactive) | 44.7 µM (inactive)
C[C@]12CCC(=O)C(O)=C1CC[C@@H]1C2CC[C@]2(C)NC(=O)CCC12 (stereo partly drawn) | > 100 µM (inactive) |  | > 100 µM (inactive) |  | > 100 µM (inactive) | > 100 µM (inactive) | > 100 µM (inactive) | > 100 µM (inactive) | > 100 µM (inactive) |  | > 100 µM (inactive) | > 100 µM (inactive) | > 100 µM (inactive) | > 100 µM (inactive) | > 100 µM (inactive) | > 100 µM (inactive) | > 100 µM (inactive) |  | > 100 µM (inactive) | > 100 µM (inactive)
C/C(N)=[N+](/C)[O-] | > 100 µM (inactive) |  | > 100 µM (inactive) |  | > 100 µM (inactive) | 15.5 µM (inactive) | 82.4 µM (inactive) | > 100 µM (inactive) | > 100 µM (inactive) |  | 25.4 µM (inactive) | > 100 µM (inactive) | 31.6 µM (inactive) | > 100 µM (inactive) | 46.3 µM (inactive) | > 100 µM (inactive) | > 100 µM (inactive) |  | > 100 µM (inactive) | 92.9 µM (inactive)
COc1cccc2c1C(=O)c1c(O)c3c(c(O)c1C2=O)C[C@@](O)(C(=O)CO)C[C@@H]3OC1CC(N)C(OC)C(C)O1 (stereo partly drawn) | 0.0289 µM (active) | 0.264 µM (active) | 0.0612 µM (active) | 0.352 µM (active) | 0.338 µM (active) | 0.0228 µM (active) | 0.315 µM (active) | 0.0362 µM (active) | 0.838 µM (active) | 0.153 µM (active) | < 0.01 µM (active) | 0.0282 µM (active) | 0.0242 µM (active) | 0.437 µM (active) | 0.0726 µM (active) | 0.116 µM (active) | 0.0776 µM (active) | 0.138 µM (active) | 0.0461 µM (active) | 0.0378 µM (active)
COc1ccc(C(=O)N/N=C/c2c(C)n(C)n(-c3ccccc3)c2=O)cc1 | > 100 µM (inactive) |  | > 100 µM (inactive) |  | > 100 µM (inactive) | > 100 µM (inactive) | > 100 µM (inactive) |  | > 100 µM (inactive) |  | > 100 µM (inactive) | > 100 µM (inactive) | > 100 µM (inactive) | > 100 µM (inactive) | > 100 µM (inactive) | > 100 µM (inactive) | > 100 µM (inactive) |  | > 100 µM (inactive) | > 100 µM (inactive)
O=C(CC1(O)C(=O)Nc2ccccc21)c1cccc(O)c1 (stereo not drawn) | > 100 µM (inactive) |  | > 100 µM (inactive) |  | > 100 µM (inactive) | > 100 µM (inactive) | > 100 µM (inactive) | 48.3 µM (inactive) | > 100 µM (inactive) |  | > 100 µM (inactive) | > 100 µM (inactive) | > 100 µM (inactive) | 46.1 µM (inactive) | > 100 µM (inactive) | > 100 µM (inactive) | > 100 µM (inactive) |  | > 100 µM (inactive) | > 100 µM (inactive)
C/N=N/N(C)C(=O)NC | > 100 µM (inactive) |  | > 100 µM (inactive) |  | > 100 µM (inactive) | > 100 µM (inactive) | > 100 µM (inactive) | > 100 µM (inactive) | > 100 µM (inactive) |  | > 100 µM (inactive) | > 100 µM (inactive) | > 100 µM (inactive) | > 100 µM (inactive) | > 100 µM (inactive) | > 100 µM (inactive) | > 100 µM (inactive) |  | > 100 µM (inactive) | > 100 µM (inactive)
CN(C)C(=S)/N=c1\ssc(=S)n1Cc1ccccn1 | 4.54 µM (inactive) |  | 4.12 µM (inactive) |  | 2.52 µM (inactive) | 5.06 µM (inactive) | 4.65 µM (inactive) | 3.52 µM (inactive) | 7.55 µM (inactive) |  | 2.93 µM (inactive) | 4.48 µM (inactive) | 8.24 µM (inactive) | 3.7 µM (inactive) | 6 µM (inactive) | 4.84 µM (inactive) | 3.9 µM (inactive) |  | 2.41 µM (inactive) | 7.03 µM (inactive)
Cc1ccc(C(=O)N(Cc2ccccc2)Cc2ccccc2)cc1/N=N/N(C)C | 29.9 µM (inactive) | 36.6 µM (inactive) | 11.9 µM (inactive) | 30.2 µM (inactive) | 4.49 µM (inactive) | 7.23 µM (inactive) | 19.3 µM (inactive) | 10.7 µM (inactive) | 33 µM (inactive) | 25.9 µM (inactive) | 14.7 µM (inactive) |  | 7.01 µM (inactive) | 15.6 µM (inactive) | 18.5 µM (inactive) |  | 6.31 µM (inactive) | 19.3 µM (inactive) | 13.1 µM (inactive) | 14.6 µM (inactive)
COC1=CC(=O)C2[C@H]3Cc4ccccc4[C@H]3C2(C)C1=O (stereo partly drawn) | > 100 µM (inactive) |  | > 100 µM (inactive) |  | > 100 µM (inactive) | > 100 µM (inactive) | > 100 µM (inactive) | > 100 µM (inactive) | > 100 µM (inactive) |  | > 100 µM (inactive) | 16.9 µM (inactive) | > 100 µM (inactive) | 34.7 µM (inactive) | > 100 µM (inactive) | > 100 µM (inactive) | > 100 µM (inactive) |  | > 100 µM (inactive) | 
COC(=O)[C@@H]1C[C@H](c2ccc(OC)c(OC)c2)OC1=O.COC(=O)[C@H]1C[C@H](c2ccc(OC)c(OC)c2)OC1=O | > 100 µM (inactive) |  | > 100 µM (inactive) |  | > 100 µM (inactive) | > 100 µM (inactive) | > 100 µM (inactive) | > 100 µM (inactive) | > 100 µM (inactive) |  | > 100 µM (inactive) | > 100 µM (inactive) | > 100 µM (inactive) | > 100 µM (inactive) | > 100 µM (inactive) | > 100 µM (inactive) | > 100 µM (inactive) |  | > 100 µM (inactive) | > 100 µM (inactive)
COc1cc(C(=O)N[C@H]2CCc3cc(OC)c(OC)c(OC)c3-c3ccc(SC)c(=O)cc32)cc(OC)c1OC | 0.00813 µM (active) |  | 0.06 µM (active) |  | 0.00502 µM (active) | 0.00603 µM (active) | 12.3 µM (inactive) | 0.0132 µM (active) | 0.215 µM (active) |  | 0.00615 µM (active) | 0.252 µM (active) | 0.136 µM (active) | 0.019 µM (active) | 0.0218 µM (active) | 0.0403 µM (active) | 0.00811 µM (active) |  | 0.0316 µM (active) | 0.0204 µM (active)
CCCOc1ccc(/C=C\c2cc(OC)c(OC)c(OC)c2)cc1 | > 100 µM (inactive) |  | 34.7 µM (inactive) |  | > 100 µM (inactive) | 27.4 µM (inactive) | 63.4 µM (inactive) | 13.6 µM (inactive) | 31.8 µM (inactive) |  | 68.2 µM (inactive) | 85.5 µM (inactive) | 73.3 µM (inactive) | 33.2 µM (inactive) | > 100 µM (inactive) | 26.6 µM (inactive) | 52.8 µM (inactive) |  | 41.4 µM (inactive) | 65.3 µM (inactive)

From ChEMBL document CHEMBL1201862, “PubChem BioAssay data set” (2004)
